Measurements published in ChEMBL document CHEMBL5131485, “Synthesis and biological activity evaluation of novel 2,6,9-trisubstituted purine conjugates as potential protein kinases inhibitors” (Bioorg Med Chem Lett, 2022).
pIC50: −log10 of the molar value. The source made the active and inactive calls. No cut-off for these calls is given here.

Key:
[1] = tested on: Receptor-type tyrosine-protein kinase FLT3 (Homo sapiens), P36888 [UNDEFINED MUTATION]; settings: MV4-11, dose 5-25 nM, time 1.0 hrs
Sequence of Receptor-type tyrosine-protein kinase FLT3 (Homo sapiens), P36888 [UNDEFINED MUTATION] (P36888 whole entry, looked up, change not shown): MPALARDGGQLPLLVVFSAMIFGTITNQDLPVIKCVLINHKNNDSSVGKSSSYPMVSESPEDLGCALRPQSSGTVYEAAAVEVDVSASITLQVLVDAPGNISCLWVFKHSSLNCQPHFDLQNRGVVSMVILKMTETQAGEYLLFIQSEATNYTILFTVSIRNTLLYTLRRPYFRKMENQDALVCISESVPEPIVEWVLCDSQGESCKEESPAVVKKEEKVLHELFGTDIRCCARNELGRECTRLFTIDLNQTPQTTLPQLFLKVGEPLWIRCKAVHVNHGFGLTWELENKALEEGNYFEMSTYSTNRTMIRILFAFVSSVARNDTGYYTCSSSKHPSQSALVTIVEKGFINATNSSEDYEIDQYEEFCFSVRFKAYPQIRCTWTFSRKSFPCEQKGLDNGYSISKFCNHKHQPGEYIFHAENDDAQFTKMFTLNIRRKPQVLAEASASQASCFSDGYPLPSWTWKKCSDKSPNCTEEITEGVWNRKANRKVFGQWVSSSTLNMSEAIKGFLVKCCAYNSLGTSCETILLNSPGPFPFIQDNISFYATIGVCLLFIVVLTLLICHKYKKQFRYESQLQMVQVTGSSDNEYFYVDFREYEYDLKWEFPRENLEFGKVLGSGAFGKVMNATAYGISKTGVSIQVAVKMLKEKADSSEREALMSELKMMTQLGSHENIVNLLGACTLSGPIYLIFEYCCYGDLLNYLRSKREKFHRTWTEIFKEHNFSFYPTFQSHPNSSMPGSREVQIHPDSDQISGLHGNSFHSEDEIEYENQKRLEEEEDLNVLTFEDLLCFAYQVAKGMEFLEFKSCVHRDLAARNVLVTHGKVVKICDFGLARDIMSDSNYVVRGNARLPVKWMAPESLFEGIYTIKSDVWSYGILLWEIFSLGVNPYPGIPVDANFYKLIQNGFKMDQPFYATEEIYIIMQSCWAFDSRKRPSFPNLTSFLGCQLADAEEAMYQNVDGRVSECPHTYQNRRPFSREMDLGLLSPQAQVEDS

MV4-11 [2] = test: cells; settings: Homo sapiens
Description: Antiproliferative activity against human MV4-11 cells expressing FLT3-ITD mutant

[3] = tested on: Receptor-type tyrosine-protein kinase FLT3 (Homo sapiens), P36888 [UNDEFINED MUTATION]; settings: MV4-11, dose 5-25 nM, time 1.0 hrs; remark: listed apart in the source
MV4-11 [4] = type: functional, cell-based; settings: Homo sapiens, dose 1-125 nM, time 24.0 hrs
EOL1 = test: cells; settings: Homo sapiens
Description: Antiproliferative activity against human EOL1 cells expressing IP1L1-PDGFRA fusion protein

[5] = target: Receptor-type tyrosine-protein kinase FLT3 (Homo sapiens, UniProt P36888, ITD)
Sequence of Receptor-type tyrosine-protein kinase FLT3 (P36888 whole entry, looked up, change not shown): as above
Description: Inhibition of FLT3 ITD mutant (unknown origin)

K562 = test: cells; settings: Homo sapiens
Description: Antiproliferative activity against human K562 cells

[6] = tested on: Receptor-type tyrosine-protein kinase FLT3 (Homo sapiens), P36888 [UNDEFINED MUTATION]; settings: MV4-11, dose 5-25 nM, time 1.0 hrs; remark: listed apart in the source
Kasumi 1 = test: cells; settings: Homo sapiens
Description: Antiproliferative activity against human Kasumi 1 cells harboring N822K KIT mutant

[7] = target: Cyclin-dependent kinase 2 (Homo sapiens, UniProt P24941)
Description: Inhibition of CDK2 (unknown origin)

[8] = target: Platelet-derived growth factor receptor alpha (Homo sapiens, UniProt P16234)
Sequence of Platelet-derived growth factor receptor alpha (P16234 whole entry): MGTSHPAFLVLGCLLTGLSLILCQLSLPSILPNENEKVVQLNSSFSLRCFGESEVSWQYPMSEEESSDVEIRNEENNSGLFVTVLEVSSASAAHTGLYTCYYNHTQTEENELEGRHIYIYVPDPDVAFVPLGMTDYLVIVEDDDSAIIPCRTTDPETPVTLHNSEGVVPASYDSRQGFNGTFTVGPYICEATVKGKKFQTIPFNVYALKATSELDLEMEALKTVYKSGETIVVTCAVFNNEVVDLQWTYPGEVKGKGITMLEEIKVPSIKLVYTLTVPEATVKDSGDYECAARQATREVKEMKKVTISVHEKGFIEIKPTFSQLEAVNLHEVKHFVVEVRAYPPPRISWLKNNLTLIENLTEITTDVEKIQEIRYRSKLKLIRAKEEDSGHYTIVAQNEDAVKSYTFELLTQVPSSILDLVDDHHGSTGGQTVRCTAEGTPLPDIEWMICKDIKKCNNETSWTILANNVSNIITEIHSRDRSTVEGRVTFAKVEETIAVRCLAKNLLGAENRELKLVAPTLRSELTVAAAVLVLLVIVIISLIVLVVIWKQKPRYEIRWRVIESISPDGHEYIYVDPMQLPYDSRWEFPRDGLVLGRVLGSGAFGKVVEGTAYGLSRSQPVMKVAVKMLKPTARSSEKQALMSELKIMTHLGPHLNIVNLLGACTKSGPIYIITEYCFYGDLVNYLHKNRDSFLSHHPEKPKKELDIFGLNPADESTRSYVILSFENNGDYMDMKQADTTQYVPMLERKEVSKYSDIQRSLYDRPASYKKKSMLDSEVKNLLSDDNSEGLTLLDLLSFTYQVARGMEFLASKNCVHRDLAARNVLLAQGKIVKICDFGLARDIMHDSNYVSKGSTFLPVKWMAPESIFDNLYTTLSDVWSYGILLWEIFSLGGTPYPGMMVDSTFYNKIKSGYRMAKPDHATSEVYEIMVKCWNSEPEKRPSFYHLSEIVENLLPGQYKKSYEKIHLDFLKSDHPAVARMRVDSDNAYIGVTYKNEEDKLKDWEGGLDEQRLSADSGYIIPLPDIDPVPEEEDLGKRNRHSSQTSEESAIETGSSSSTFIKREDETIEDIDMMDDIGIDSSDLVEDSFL
Description: Inhibition of PDGFRalpha (unknown origin)

SMILES | inhibition [1] | GI50 (MV4-11 [2]) [µM] | inhibition [3] | pIC50 [5] | GI50 (K562) [µM] | inhibition [6] | pIC50 [7] | pIC50 [8] | Activity (MV4-11 [4]) | GI50 (EOL1) [µM] | GI50 (Kasumi 1) [µM]
NCCCNCCCCNc1ccc(Nc2nc(N[C@H]3CC[C@H](N)CC3)nc3c2ncn3C2CCCC2)cc1 | Active | 0.052 | Active | 8.22 | 2.79 | Active | 7.68 | 6.66 | Active | 0.06 | 1.85
NCCCCNC(=O)c1ccc(CNc2nc(N[C@H]3CC[C@H](N)CC3)nc3c2ncn3C2CCCC2)cc1 | – | 0.577 | – | 5.78 | 8.26 | Active | 7.57 | < 4.70 | – | 0.676 | 2.56
NCCCCNc1ccc(Nc2nc(N[C@H]3CC[C@H](N)CC3)nc3c2ncn3C2CCCC2)cc1 | Active | 0.095 | Active | 8.40 | 6.29 | Active | 7.77 | 6.82 | Active | 0.171 | 2.74
N[C@H]1CC[C@H](Nc2nc(NCc3ccccc3)c3ncn(C4CCCC4)c3n2)CC1 | – | 1.14 | – | 5.60 | 4.22 | Active | – | < 4.70 | – | 1.17 | 0.988
NCCCNCCCCNC(=O)c1ccc(CNc2nc(N[C@H]3CC[C@H](N)CC3)nc3c2ncn3C2CCCC2)cc1 | – | 0.602 | – | 5.88 | 7.19 | Active | 7.60 | 4.70 | – | 0.799 | 1.92

The next compounds have a lower GI50 (MV4-11 [2]) than those just listed; values first:

inhibition [1] | GI50 (MV4-11 [2]) [µM] | inhibition [3] | pIC50 [5] | GI50 (K562) [µM] | inhibition [6] | pIC50 [7] | pIC50 [8] | SMILES | Activity (MV4-11 [4]) | GI50 (EOL1) [µM] | GI50 (Kasumi 1) [µM]
Active | 0.039 | Active | 8.70 | 6.13 | Active | 8.40 | 7.77 | NC(=O)c1ccc(Nc2nc(N[C@H]3CC[C@H](N)CC3)nc3c2ncn3C2CCCC2)cc1 | Active | 0.04 | 4.18
Active | 0.023 | Active | 8.30 | 2.45 | Active | 8.15 | 6.71 | N[C@H]1CC[C@H](Nc2nc(Nc3ccccc3)c3ncn(C4CCCC4)c3n2)CC1 | Active | 0.041 | 0.278
Active | 0.023 | Active | 8.52 | 10.8 | Active | 7.70 | 7.44 | NCCCCNC(=O)c1ccc(Nc2nc(N[C@H]3CC[C@H](N)CC3)nc3c2ncn3C2CCCC2)cc1 | Active | 0.015 | 4.05
Active | 0.004 | Active | 8.00 | 0.896 | Active | 7.51 | 6.69 | NCCCNCCCCNCCCNc1ccc(Nc2nc(N[C@H]3CC[C@H](N)CC3)nc3c2ncn3C2CCCC2)cc1 | – | 0.011 | 0.647
Active | 0.025 | Active | 8.40 | 7.37 | Active | 7.72 | 7.39 | NCCCNCCCCNC(=O)c1ccc(Nc2nc(N[C@H]3CC[C@H](N)CC3)nc3c2ncn3C2CCCC2)cc1 | Active | 0.017 | 2.91
